Source: article PMC8260761, “A bacteriocin-based treatment option for Staphylococcus haemolyticus biofilms” (Scientific Reports, 2021)
Where two headings read alike, the source gives them in different places. Where no end group is shown, it is not given here.

Legend:
[1] = test system: Staphylococcus haemolyticus strains; experiment: Spot-on-lawn inhibition assay; assay type: cell-based; settings: six S. haemolyticus strains 4068–4073; 0.04, 0.2 and 1.0 mg/ml, 5 µl spotted
Description: (§1) A semi-quantitative spot-on-lawn inhibitory assay was performed on 51 bacterial indicator strains (Table S1) to determine the bacteriocins inhibition spectra. Overnight cultures were diluted 1:100 in BHI soft agar and distributed on BHI agar plates. Once solidified, bacteriocins with various concentrations were applied on designated spots. The plates were incubated at appropriate temperature O/N and inhibition zones were measured the following day. To determine minimal inhibitory concentration (MIC50) of H1 against clinical S. haemolyticus isolates (Table S2), as well as strains heterologously expressing RseP (Table S4), the microtiterplate antimicrobial assay was performed as previously described[41],[79]. MIC50 was defined as the minimal bacteriocin concentration needs to inhibit the growth of a bacterial strain by at least 50%.

[2] = test system: planktonic S. haemolyticus; assay type: cell-based, Staphylococcus haemolyticus
Description: Synergistic interactions between antimicrobials were determined using the fractional inhibition concentration (FIC) as previously described. The FIC values were determined using a mirotiterplate checkerboard assay. Briefly, antimirobial A was applied in wells A1–H1 then diluted two-fold in wells 2–12. In a second microtiter plate, antimicrobial B was applied in wells A1–A12, then diluted two folds in wells B–H. Fifty μl of the serial diluted antimirobial A was transferred to the wells of a third microtiter plate, except for wells H1–H12. Similarly, 50 μl of the serial diluted antimicrobial B was transferred to the same microtiter plate, except for wells A1–A12. Wells H1-12 and wells A1-12 contained only one of the antimicrobials and was used to estimate the MIC value of the pure substance. After combining the antimicrobials, 100 μl of a 1:25 diluted O/N of S. haemolyticus was transferred to each well of the third microplate, while 50 μl of medium was added to wells H1-12 and A1-12. […] FIC values were calculated as follows: FIC = FICa + FICb + FICc, where the FICa means MIC of A in combination/MIC of A alone, FICb means MIC of B in combination/MIC of B, and FICc means MIC of C in combination/MIC of C alone. Effects were considered as synergistic if FIC was ≤ 0.5 for two components mixture[81] and ≤ 0.75 for three components mixture.

[3] = test system: clinical and commensial S. haemolyticus isolates; assay type: cell-based, Staphylococcus haemolyticus; settings: 5 h
Description: as §1

[4] = test system: L. plantarum WCFS1 strains (with or without S. haemolyticus RseP); assay type: cell-based, Lactobacillus plantarum
Description: as §1
rseP (Uniprot: Q4L5W4) derived from S. haemolyticus 7067_4_21 was heterologously expressed in the naturally H1-resistant L. plantarum WCFS1[36] using the vector pSIP expression system[84],[85]. First, pLp1261_InvS, a pSIP401 derivative[84],[86], was linearized using FastDigest Restrictiction Enzymes NdeI and Acc65I (ThermoFisher Scientific) to isolate the vector part. Second, rseP was amplified by PCR using specially designed In-Fusion Primes (Table S6), giving amplicons with complementary ends to the linearized vector. The In-Fusion HD cloning Kit (Takara Bio) was used to fuse rseP into the linearized vector, yielding pSIP401_SHRseP. The plasmid was subsequently transformed to E.coli TOP10 (ThermoFischer Scientific). Plasmid DNA from E. coli was isolated using NucleoSpin Plasmid Kit (Macherey–Nagel). The DNA sequence of all PCR amplified fragments was verified by sequencing at Eurofins GATC, Germany, and before being electroporated into L. plantarum WCSF1 following the procedure described by Aukrust and Blom[87].

[5] = S. haemolyticus 4068, planktonic cells, 5 h exposure
[6] = S. haemolyticus 4068, planktonic cells, 24 h exposure
[7] = S. haemolyticus 4068, planktonic cells, 48 h exposure
[8] = S. haemolyticus 4069, planktonic cells, 5 h exposure
[9] = S. haemolyticus 4069, planktonic cells, 24 h exposure
[10] = S. haemolyticus 4069, planktonic cells, 48 h exposure
[11] = S. haemolyticus 4070, planktonic cells, 5 h exposure
[12] = S. haemolyticus 4070, planktonic cells, 24 h exposure
[13] = S. haemolyticus 4070, planktonic cells, 48 h exposure
[14] = S. haemolyticus 4071, planktonic cells, 5 h exposure
[15] = S. haemolyticus 4071, planktonic cells, 24 h exposure
[16] = S. haemolyticus 4071, planktonic cells, 48 h exposure
[17] = S. haemolyticus 4072, planktonic cells, 5 h exposure
[18] = S. haemolyticus 4072, planktonic cells, 24 h exposure
[19] = S. haemolyticus 4072, planktonic cells, 48 h exposure
[20] = S. haemolyticus 4073, planktonic cells, 5 h exposure
[21] = S. haemolyticus 4073, planktonic cells, 24 h exposure
[22] = S. haemolyticus 4073, planktonic cells, 48 h exposure

Substance | Inhibition zones at three concentrations [1] | MIC, individual component [2, 5] [µg/mL] | MIC, individual component [2, 6] [µg/mL] | MIC, individual component [2, 7] [µg/mL] | MIC, individual component [2, 8] [µg/mL] | MIC, individual component [2, 9] [µg/mL] | MIC, individual component [2, 10] [µg/mL] | MIC, individual component [2, 11] [µg/mL] | MIC, individual component [2, 12] [µg/mL] | MIC, individual component [2, 13] [µg/mL] | MIC, individual component [2, 14] [µg/mL] | MIC, individual component [2, 15] [µg/mL] | MIC, individual component [2, 16] [µg/mL] | MIC, individual component [2, 17] [µg/mL] | MIC, individual component [2, 18] [µg/mL] | MIC, individual component [2, 19] [µg/mL] | MIC, individual component [2, 20] [µg/mL] | MIC, individual component [2, 21] [µg/mL] | MIC, individual component [2, 22] [µg/mL] | also measured
SCTTCVCTCSCCTT [MP1, micrococcin P1] | clear inhibition zones at all three concentrations | 0.02 | 0.023 | 0.078 | 0.15 | > 10 | > 10 | 0.02 | 0.33 | 0.13 | 0.043 | > 10 | > 10 | 0.039 | > 10 | 0.63 | 0.022 | 0.072 | 0.14 | –
MKFKFNPTGTIVKKLTQYEINWYKQQYGRYPWERPVA [H1] | – | – | – | – | – | – | – | – | – | – | – | – | – | – | – | – | – | – | – | MIC50 against the different S. haemolyticus strains [3]: 100 to 780 µg/mL; Minimal inhibitory concentration (MIC) ([4]; L. plantarum WCFS1): > 50 µg/mL; Minimal inhibitory concentration (MIC) ([4]; L. plantarum WCFS1/pEV, expressing empty vector): > 50 µg/mL; Minimal inhibitory concentration (MIC) ([4]; L. plantarum WCFS1/pSIP401_SHRseP, expressing RseP from S. haemolyticus 7067_4_21): 0.39 µg/mL; MIC50 over the tested strains ([2]; planktonic, 5 h): 0.78 µg/mL; MIC, individual component ([2]; planktonic, 24 h): 0.78 µg/mL
garvicin KS [GarKS] | some inhibition was seen only at the highest concentration | 6.5 | 24 | 25 | 3.3 | 13 | 26 | 12 | 48 | 51 | 12.5 | 51 | 100 | 23.6 | 49 | 52 | 12.5 | 51 | 51 | –
